# From US4948894A, “8-fluoro and 7, 8, 10-trifluoro-9-(substituted)-6-oxo-6H-benzo-(C)quinolizine-5-carboxylic acids” (American Cyanamid Company, priority 1989, dated 1990)
# Like-named read-outs stand apart in the source and are kept apart here.
# Experiments:
# Assay in all cases: In vitro antibacterial spectrum, agar plate dilution method (MIC)
# Type in all cases: cell-based
# Citrobacter diversus = details: Citrobacter koseri; Citrobacter diversus K 82-24; Mueller-Hinton agar, 10^4 CFU, 18 hours at 35° C
# Protocol: (§1) The in vitro antimicrobial spectrum of the compounds of the invention were determined by the agar plate dilution method with Mueller-Hinton agar and an inoculum of each test organism of approximately 10^4 colony forming units delivered by the steers replicating device. The minimal inhibitory concentration (MIC) in mcg/ml is defined as the lowest concentration of test compound that inhibited visible growth after 18 hours incubation at 35° C.
# Morganella morganii = details: 18 h, 10^4 CFU, 18 hours at 35° C
# Protocol: as §1
# Serratia marcescens = details: 18 h, 10^4 CFU, 18 hours at 35° C
# Protocol: as §1
# Staphylococcus aureus = details: Mueller-Hinton agar, 10^4 CFU, 18 hours at 35° C
# Protocol: as §1
# Proteus rettgeri = details: Providencia rettgeri; Proteus rettgeri IO 83-21; Mueller-Hinton agar, 10^4 CFU, 18 hours at 35° C
# Protocol: as §1
# Pseudomonas aeruginosa = details: Mueller-Hinton agar, 10^4 CFU, 18 hours at 35° C
# Protocol: as §1
# Streptococcus faecalis = details: Mueller-Hinton agar, 10^4 CFU, 18 hours at 35° C
# Protocol: as §1
# Enterobacter cloacae = details: 18 h, 10^4 CFU, 18 hours at 35° C
# Protocol: as §1
# Providencia stuartii = Providencia stuartii CMC 83-3; Mueller-Hinton agar, 10^4 CFU, 18 hours at 35° C
# Protocol: as §1
# Klebsiella nneumoniae = details: Mueller-Hinton agar, 10^4 CFU, 18 hours at 35° C
# Protocol: as §1
# Escherichia coli = details: 10^4 CFU, 18 hours at 35° C
# Protocol: as §1
structure (smiles),measurement,setting,value
"CN1CCN(c2cc3c(cc2F)c(=O)c(C(=O)O)c2ccccn23)CC1 [Example 6, 8-Fluoro-9-(4-methyl-1-piperazinyl)-6-oxo-6H-benzo[c]quinolizine-5-carboxylic acid]",MIC,Citrobacter diversus,4 µg/mL
same,MIC,"Morganella morganii; Morganella morganii CMC 84-38, Mueller-Hinton agar",0.5 µg/mL
same,MIC,"Morganella morganii; Morganella morganii VGH 84-12, Mueller-Hinton agar",4 µg/mL
same,MIC,"Morganella morganii; Moroanella morganii MOR 84-45, Mueller-Hinton agar",0.5 µg/mL
same,MIC,"Serratia marcescens; Serratia marcescens CMC 83-74, Mueller-Hinton agar",> 16 µg/mL
same,MIC,"Serratia marcescens; Serratia marcescens IO 83-63, Mueller-Hinton agar",4 µg/mL
same,MIC,"Serratia marcescens; Serratia marcescens MOR 84-41, Mueller-Hinton agar",2 µg/mL
same,MIC,"Staphylococcus aureus; ATCC25913, Staphylococcus aureus ATCC 25913, read-out: MIC",> 16 µg/mL
same,MIC,Staphylococcus aureus; Staphylococcus aureus CMC 83-131,> 16 µg/mL
same,MIC,Staphylococcus aureus; Staphylococcus aureus K 82-26,> 16 µg/mL
same,MIC,"Staphylococcus aureus; Staphylococcus aureus VGH 84-47, read-out: MIC",> 16 µg/mL
same,MIC,Proteus rettgeri,1 µg/mL
same,MIC,Pseudomonas aeruginosa; Pseudomonas aeruginosa CMC 83-20,> 16 µg/mL
same,MIC,"Pseudomonas aeruginosa; Pseudomonas aeruginosa K 84-16, read-out: MIC",> 16 µg/mL
same,MIC,Pseudomonas aeruginosa; Pseudomonas aeruginosa VGH 84-3,> 16 µg/mL
same,MIC,"Streptococcus faecalis; Enterococcus faecalis, Streptococcus faecalis VCI 85-30, read-out: MIC",> 16 µg/mL
same,MIC,Streptococcus faecalis; Streptococcus faecalis CMC 83-120,> 16 µg/mL
same,MIC,Streptococcus faecalis; Streptococcus faecalis VGH 84-69,> 16 µg/mL
same,MIC,"Enterobacter cloacae; Enterobacter cloacae K 84-10, Mueller-Hinton agar",2 µg/mL
same,MIC,"Enterobacter cloacae; Enterobacter cloacae MOR 84-30, Mueller-Hinton agar",16 µg/mL
same,MIC,"Enterobacter cloacae; Enterobacter cloacae VGH 84-39, Mueller-Hinton agar",2 µg/mL
same,MIC,Providencia stuartii,> 16 µg/mL
same,MIC,Klebsiella nneumoniae; Klebsiella nneumoniae IO 83-5,8 µg/mL
same,MIC,"Klebsiella nneumoniae; Klebsiella nneumoniae MOR 84-24, read-out: MIC",8 µg/mL
same,MIC,Klebsiella nneumoniae; Klebsiella oneumoniae CMC 84-31,8 µg/mL
same,MIC,"Escherichia coli; 18 h, Escherichia coli CMC 84-50, Mueller-Hinton agar",2 µg/mL
same,MIC,"Escherichia coli; 18 h, Escherichia coli D 21, Mueller-Hinton agar",4 µg/mL
same,MIC,"Escherichia coli; 18 h, Escherichia coli D 22, Mueller-Hinton agar",2 µg/mL
same,MIC,"Escherichia coli; 18 h, Escherichia coli MOR 84-20, Mueller-Hinton agar",2 µg/mL
same,MIC,"Escherichia coli; 18 h, Escherichia coli VGH 84-19, Mueller-Hinton agar",4 µg/mL
same,MIC,"Escherichia coli; ATCC25922, 18 h, Escherichia coli ATCC 25922, Mueller-Hinton agar",4 µg/mL
